US9862754B2, “Peptide analogs for treating diseases and disorders” (KeyBioscience AG, priority 2011, dated 2018)
Bridge positions count the residues as written; N and C are the ends. Ends that are not written are not given here.

Assays:
Assay type in all cases: in vivo, rat
[1] = Example 3: short-term oral treatment, body weight and food intake in DIO rats
Experimental: (§1) The study was performed in male Levin-DIO rats (diet-sensitive) and Levin-DR (diet-resistant) (TacLevin: CD (SD) DIO) (Taconic, Hudson, N.Y., U.S.A.) obtained at age 6-7 weeks. On arrival, DIO rats were given high fat diet (60 kcal %) (#D12495, Research Diets Inc., New Brunswick, N.J., USA) and kept on the same diet for 12 weeks prior to and during the experiment. DR rats were given low-fat diet and served as control group. Animals were pair-wise housed throughout the study. Rats were handled and pre-dosed once daily with MilliQ H2O for 2-3 weeks prior to experimental start to reduce stress-induced hyperglycemia. On the day prior to study start animals were given a single dose of vehicle. Baseline parameters were recorded in an overnight fasting (16 h) condition. Rats were randomized into treatment groups based on fasting body weight (BW) and fasting plasma glucose (FPG). Body weight, food and water intake were recorded prior to and at study end.
Animals treated with oral sCT or oral UGP284/UGP298/UGP302 received doses of 0.5 mg/kg, 1.0 mg/kg or 2.0 mg/kg combined with 150 mg/kg 5-CNAC—all dissolved in milliQ H2O.
(§2) Drug administration were given by per oral (p.o.) gavage b.i.d. during the study period and as single dose in the morning prior to start of OGTT.
Following the initial (1st) OGTT, animals were randomized into treatment groups based on FBG and BW. Animals were pre-treated 3 days (b.i.d.) prior to 2nd OGTT. The study was performed in an x-over design with each animal being its own control.
(§3) Statistical analysis was performed by one-way ANOVA followed by the Dunnett's post hoc test for multiple comparison. Student's t-test was performed to compare two paired group. All analysis was performed using GRAPHPAD PRISM software (GraphPad Prism, San Diego, Calif. U.S.A). Incremental area under curve (iAUC) during OGTT was calculated by the trapezoidal method. A value of P<0.05 was considered to be significant. All data are presented as mean±standard error of the mean (SEM).
FIG. 9A, FIG. 9B, FIG. 9C, FIG. 9D, FIG. 9E, and FIG. 9F show the effect of three different doses of oral sCT/UGP284/UGP298/UGP302 containing 0.5, 1 and 2 mg/kg compound were applied by gavage twice daily to 4 groups of rats for 3 days. * P<0.05, ** P<0.01 vs oral sCT. Results are presented as means±SEM.

[2] = Example 1: fasting glycaemia in DIO rats; conditions: following 2 and 4 weeks of treatment, 1 mg/kg p.o. b.i.d.
Experimental: as §1, with “for 16” for “for 12”, “stress-induced hyperglycaemia.” for “stress-induced hyperglycemia. On the day prior to study start animals were given a single dose of vehicle.”, “an” for “an overnight”, “fasting (6” for “fasting (16”, “recorded once weekly during the” for “recorded prior to and at”, “study period.” for “study end.”
Blood sampling and glycemia were measured by heated tail venous puncture.
Whole blood glucose levels were determined with an ACCU-CHEK® Avia blood glucose meter (Roche Diagnostics, Rotkreuz, Switzerland). Blood (approx 300 ul) is collected in 1 ml MiniCollect K3EDTA plasma-tube (Greiner-Bio-One GmbH, Frickenhausen, Germany), inverted, and stored on ice. Tubes are centrifuged 3000×g (5000 rpm in table centrifuge) for 10 min at 4° C. and plasma obtained. Plasma samples are stored at −20° C. until analysis. […]

[3] = Example 1: chronic oral treatment, body weight and food intake in DIO rats; conditions: for body weight: 4 weeks, vs oral vehicle (mimetic also vs oral sCT); for body weight / cumulative food intake: study end; for body weight / food intake: 1 mg/kg p.o. b.i.d. with 150 mg/kg 5-CNAC; for food intake: first week of treatment; for food intake / cumulative food intake: vs oral vehicle; for cumulative food intake: four weeks of treatment, 1 mg/kg p.o. b.i.d.
Experimental: as §1, with “for 16” for “for 12”, “stress-induced hyperglycaemia.” for “stress-induced hyperglycemia. On the day prior to study start animals were given a single dose of vehicle.”, “an” for “an overnight”, “fasting (6” for “fasting (16”, “recorded once weekly during the” for “recorded prior to and at”, “study period.” for “study end.”
Oral sCT or calcitonin mimetic 1 solution was prepared on the day of dosing by mixing a carrier with the given compound based on the following calculations:
Animals treated with oral sCT or oral calcitonin mimetic 1 received doses of 1.0 mg/kg combined with 150 mg/kg 5-CNAC—all dissolved in milliQ H20.
Drug administration by per oral (p.o.) gavage b.i.d. (7-8 am and 3-4 pm) during the study period and as single dose in the morning prior to start of OGTT.
as §3
One dose of oral sCT/calcitonin mimetic 1 containing 1 mg/kg compound was applied by gavage twice daily to four groups of rats for 4 weeks. An oral vehicle group served as dosing regimen control, respectively. * P<0.05, ** P<0.01, *** P<0.001 vs Vehicle. Results are presented as means±SEM.

[4] = Example 2: short-term oral treatment, body weight and food intake in DIO rats; conditions: for food intake: 0.5, 1 and 2 mg/kg p.o. b.i.d. for 3 days; for body weight: 0.5, 1 and 2 mg/kg p.o. b.i.d. for 3 days with 150 mg/kg 5-CNAC
Experimental: as §1, with “hyperglycaemia.” for “hyperglycemia.”
Animals treated with oral sCT or oral calcitonin mimetic 1 received doses of 0.5 mg/kg, 1.0 mg/kg or 2.0 mg/kg combined with 150 mg/kg 5-CNAC—all dissolved in milliQ H20.
as §2
Following the initial (1st) OGTT, animals are randomized into treatment groups based on FBG and BW. Animals will be pre-treated 3 days (b.i.d.) prior to 2nd OGTT. Dosing will be performed in the morning (7-8 am) and afternoon (3-4 pm).
The study was performed in an x-over design with each animal being its own control.
Three different doses of oral sCT/calcitonin mimetic 1 containing 0.5, 1 and 2 mg/kg compound were applied by gavage twice daily to 4 groups of rats for 3 days. * P<0.05, ** P<0.01 vs oral sCT.

Substance	reduction in body weight vs oral sCT at same dose ([1]; 0.5 mg/kg p.o. b.i.d. for 3 days, DIO rats)	energy balance vs equivalent doses of oral sCT ([1]; 0.5, 1 and 2 mg/kg doses p.o., male DIO rats)	fasting glycaemia [2]	body weight [3]	food intake [3]	cumulative food intake [3]	reduction in body weight vs oral sCT at same dose ([4]; 0.5 mg/kg p.o. b.i.d. for 3 days)	food intake [4]	body weight [4]	body weight ([1]; 0.5, 1 and 2 mg/kg p.o. b.i.d. for 3 days with 150 mg/kg 5-CNAC, DIO rats)	food intake ([1]; 0.5, 1 and 2 mg/kg p.o. b.i.d. for 3 days, DIO rats)
Ac-CSNLSTCVLGKLSQELHKLQTYPRTDVGANAP-NH2 (Ac-CSNLSTCVLGKLSQELHKLQTYPRTDVGANAP-NH2; ends and bridges not checked) [UGP302, calcitonin mimetic]	significantly difference to oral sCT 0.5 mg/kg	superiority to equivalent doses of oral sCT	trend towards superiority in fasting glycaemia	more pronounced significant reduction in body weight	significantly reduced food intake	significantly reduced	significantly difference to oral sCT 0.5 mg/kg	trended dose-dependently reduced compared to oral sCT	dose-dependent superiority to oral sCT	–	–
salmon calcitonin (CSNLSTCVLGKLSQELHKLQTYPRTNTGSGTP-NH2; disulfide 1-7; ends not checked) [sCT, reference compound]	–	–	not significantly different from oral vehicle	significantly reduced body weight from baseline	significantly reduced food intake	lack of difference	–	dose-dependently decreased	dose-dependently decreased	dose-dependently decreased	dose-dependently decreased
